Reference: PMC2798750, “Caenorhabditis elegans N-glycan Core β-galactoside Confers Sensitivity towards Nematotoxic Fungal Galectin CGL2” (PLoS Pathogens, 2010)

Target: CGL2 (Coprinopsis cinerea, UniProt Q9P4R8)
Assay: biochemical

Sequence of CGL2 (Q9P4R8 whole entry, looked up): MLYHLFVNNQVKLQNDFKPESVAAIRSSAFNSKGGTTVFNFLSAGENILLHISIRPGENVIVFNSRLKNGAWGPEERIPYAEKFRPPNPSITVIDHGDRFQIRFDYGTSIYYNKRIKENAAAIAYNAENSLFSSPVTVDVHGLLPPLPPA

Question: With `CC(=O)N[C@H]1[C@H](OCCCCCN)O[C@H](CO[C@@H]2O[C@@H](C)[C@@H](O[C@@H]3O[C@H](CO)[C@H](O)[C@H](O)[C@H]3O)[C@@H](O)[C@@H]2O)[C@@H](O)[C@@H]1O` [Galβ1,4Fucα1,6GlcNAcβOC5H10NH2] as the molecule, how does the Kd read?
Answer: The Kd was roughly 100 µM.
